Data on four compounds can be found in article PMC7915519, “Zinc(II) Complexes of Amino Acids as New Active Ingredients for Anti-Acne Dermatological Preparations” (International Journal of Molecular Sciences, 2021).

Series [1] deals with human epidermal keratinocytes, neonatal. The series is described as follows: Cytotoxicity, Presto Blue cell viability assay on human epidermal keratinocytes. In kind it is cell-based. The note with it: 24 h incubation, Hill Equation, read-out: IC50 Values (Mean ± SD) Keratinocytes. On the procedure:
(§1) The cytotoxicity test was conducted on a 1BR.3.N cell line (human skin fibroblasts, ECACC, co. 90020508) and human epidermal keratinocytes, neonatal (Millipore, co. SCCE020) purchased from Sigma-Aldrich (Merck, Darmstadt, Germany). The same procedure was conducted for keratinocytes in EpiGROTM human epidermal keratinocyte complete media with 6 mM L-glutamine, 0.405 EpiFactor P, 1.0 μM epinephrine, 0.5 ng/mL rh TGF-α, 100 ng/mL hydrocortisone hemisuccinate, 5 μg/mL rh insulin and apo-transferrin. The cells were maintained at 37 °C and 5% CO2 in a humidified incubator. Next, the medium was changed into a starvation medium for the 1BR.3.N cell line (EpiGROTM human epidermal keratinocyte complete media kit for keratinocytes) with a variable final concentration of five analyzed complexes (ZnGlu (1), ZnGly (2), ZnHis (3), ZnPro (4), ZnTrp (6)) and two controls, ZnPCA and ZnCl2.

The subject of series [2] is HaCaT keratinocytes. The following applies: concentration equal to 100 μM; cited from earlier work.
The test system of series [3] is L929 fibroblast cultures. The arrangement: method as in PMID 28246541. The note with it: murine model; read-out: IC50 against L929 fibroblast cultures; cited from earlier work.
The test system of series [4] is human skin fibroblasts (1BR.3.N cell line). The experiment in a line: Cytotoxicity, Presto Blue cell viability assay on human skin fibroblasts. In kind it is cell-based. The following applies: 1BR.3.N human skin fibroblasts, 24 h incubation, Hill Equation, read-out: IC50 Values (Mean ± SD) Fibroblasts. The method, then: as §1, with “The same procedure was conducted for keratinocytes in EpiGROTM human epidermal keratinocyte complete media with 6 mM L-glutamine, 0.405 EpiFactor P, 1.0 μM epinephrine, 0.5 ng/mL rh TGF-α, 100 ng/mL hydrocortisone hemisuccinate, 5 μg/mL rh insulin and apo-transferrin.” left out

The subject of series [5] is Cutibacterium acnes ATCC 6919. The experiment in a line: Antimicrobial activity by microdilution method (CLSI M11), anaerobic conditions. In kind it is cell-based. The following applies: C. acnes ATCC 6919, 48 h at 37 °C, tested up to 500 mg/L. The method, then:
The antimicrobial potential of zinc complexes against the anaerobic strain Cutibacterium acnes ATCC 6919 was tested by the microdilution method in Brucella broth supplemented with hemin, vitamin K1 and laked horse blood according to the CLSI document M11 (9th Edition) for antimicrobial susceptibility testing of anaerobic bacteria. Antimicrobial activity testing assays were conducted in 96-well cell culture plates in anaerobic conditions. The antimicrobial properties of zinc complexes were tested up to 500 mg/L. […] The bacterial suspension and dilutions of the tested compounds were combined in equal volumes to achieve the expected concentrations of zinc amino acid complexes. Samples as well as adequate abiotic and biotic controls were incubated for 48 h at 37 °C after being placed in 96-well cell culture plates in anaerobic jars, in which anaerobic conditions were formed using Anoxomat Mark II CTS (Mart Microbiology […], the Netherlands). The minimum inhibitory concentration (MIC), expressed in mg/L, was determined as the lowest concentration of zinc amino acid complexes at which no growth of C. acnes was observed. […] The Brucella agar plates were incubated for 48 h at 37 °C after placing the plates in anaerobic jars, in which anaerobic conditions were created.

The test system of series [6] is human lung fibroblast (MRC-5) cell line. The arrangement: method as in PMID 30594780. The note with it: concentrations up to 100 µM; cited from earlier work.

In the case of `[Cl-].[Cl-].[Zn+2]` [ZnCl2], the IC50 – broadly, the concentration at which inhibition is half-maximal – in series [1] was 127 µM; in series [3], 0.928 µM; in series [4] it was 163 ± 4.1 µM. Further, in series [2], the “toxicity to HaCaT keratinocytes” value is “non-toxic”.
`NCC(=O)[O-].NCC(=O)[O-].[Zn+2]` [ZnGly (2)]: the values for the IC50 in series [1] and in series [4] were 138 ± 8.11 µM and 120 ± 4.61 µM, respectively. Moreover, the “MIC Value” in series [5] was found to be 100 µg/mL.
The like results for `O=C1CCC(C(=O)[O-])N1.O=C1CCC(C(=O)[O-])N1.[Zn+2]` (centres unmarked) [ZnPCA, zinc 2-pirrolidone 5-carboxylate] were, in that order, 102 ± 2.07 µM, 172 ± 9.69 µM and 175 µg/mL.
As to “copper(II) complex with 5-hydroxytryptophan”, in series [6], the “toxic effects on MRC-5 cell line” value is on record as “no toxic effects”.
